Results published in ChEMBL document CHEMBL1800055, “Orally active MMP-1 sparing α-tetrahydropyranyl and α-piperidinyl sulfone matrix metalloproteinase (MMP) inhibitors with efficacy in cancer, arthritis, and cardiovascular disease” (J Med Chem, 2010).
pIC50: −log10 of the molar value.

How the values were obtained:
[1] = biological target: 72 kDa type IV collagenase (Homo sapiens, UniProt P08253)
[2] = biological target: Stromelysin-1 (Homo sapiens, UniProt P08254)
[3] = biological target: T1, Matrilysin (Homo sapiens, UniProt P09237)
T1 sequence (P09237 whole entry): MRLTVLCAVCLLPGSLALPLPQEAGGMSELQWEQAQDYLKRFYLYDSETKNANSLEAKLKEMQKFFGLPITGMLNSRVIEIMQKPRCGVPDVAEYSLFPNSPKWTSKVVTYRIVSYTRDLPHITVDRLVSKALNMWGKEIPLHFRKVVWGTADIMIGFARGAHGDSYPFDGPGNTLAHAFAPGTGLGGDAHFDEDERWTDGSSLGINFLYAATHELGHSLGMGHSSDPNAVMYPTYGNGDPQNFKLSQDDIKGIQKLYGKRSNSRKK

[4] = biological target: Neutrophil collagenase (Homo sapiens, UniProt P22894)
Sequence of Neutrophil collagenase (P22894 whole entry): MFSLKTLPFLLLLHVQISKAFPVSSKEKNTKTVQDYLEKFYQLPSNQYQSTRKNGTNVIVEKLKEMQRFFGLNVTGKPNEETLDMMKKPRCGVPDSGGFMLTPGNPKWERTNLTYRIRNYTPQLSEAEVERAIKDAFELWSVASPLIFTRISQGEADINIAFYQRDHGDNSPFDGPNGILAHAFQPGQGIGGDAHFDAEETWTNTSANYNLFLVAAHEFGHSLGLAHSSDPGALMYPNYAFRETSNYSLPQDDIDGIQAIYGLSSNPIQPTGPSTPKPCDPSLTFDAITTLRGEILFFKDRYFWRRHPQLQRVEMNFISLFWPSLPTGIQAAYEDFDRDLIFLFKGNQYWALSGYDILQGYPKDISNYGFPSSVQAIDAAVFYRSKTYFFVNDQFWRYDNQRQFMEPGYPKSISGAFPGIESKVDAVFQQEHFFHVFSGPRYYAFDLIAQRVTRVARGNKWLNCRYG

[5] = Cmax in rat at 20 mg/kg, po; assay type: ADME, organism-based; set-up: dose 20 mg/kg, route oral; conditions: in vivo
[6] = test system: Rattus norvegicus; assay: Plasma concentration in rat at 20 mg/kg, po; assay type: ADME, organism-based; set-up: dose 20 mg/kg, route oral; conditions: in vivo; further: time not given here
[7] = Half life in rat at 20 mg/kg, po; assay type: ADME, organism-based; set-up: dose 20 mg/kg, route oral; conditions: in vivo
[8] = Oral bioavailability in rat at 20 mg/kg; assay type: ADME, organism-based; conditions: in vivo
[9] = biological target: T2, Interstitial collagenase (Homo sapiens, UniProt P03956); assay type: cell-based, HT-1080
T2 sequence (P03956 whole entry): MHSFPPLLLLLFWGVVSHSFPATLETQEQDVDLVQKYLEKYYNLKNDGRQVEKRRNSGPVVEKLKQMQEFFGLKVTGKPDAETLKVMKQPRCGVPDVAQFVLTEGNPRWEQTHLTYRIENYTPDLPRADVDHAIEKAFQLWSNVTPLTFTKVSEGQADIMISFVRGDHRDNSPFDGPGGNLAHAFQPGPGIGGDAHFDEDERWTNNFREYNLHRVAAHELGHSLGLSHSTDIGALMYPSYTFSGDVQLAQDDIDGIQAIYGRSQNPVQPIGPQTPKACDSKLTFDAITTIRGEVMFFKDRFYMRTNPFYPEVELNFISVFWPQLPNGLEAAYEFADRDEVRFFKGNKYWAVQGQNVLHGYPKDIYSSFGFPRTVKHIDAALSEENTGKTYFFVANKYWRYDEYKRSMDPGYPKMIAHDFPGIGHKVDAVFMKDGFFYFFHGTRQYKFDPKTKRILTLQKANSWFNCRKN

[10] = biological target: Collagenase 3 (Homo sapiens, UniProt P45452)

Sequence of 72 kDa type IV collagenase (P08253 whole entry): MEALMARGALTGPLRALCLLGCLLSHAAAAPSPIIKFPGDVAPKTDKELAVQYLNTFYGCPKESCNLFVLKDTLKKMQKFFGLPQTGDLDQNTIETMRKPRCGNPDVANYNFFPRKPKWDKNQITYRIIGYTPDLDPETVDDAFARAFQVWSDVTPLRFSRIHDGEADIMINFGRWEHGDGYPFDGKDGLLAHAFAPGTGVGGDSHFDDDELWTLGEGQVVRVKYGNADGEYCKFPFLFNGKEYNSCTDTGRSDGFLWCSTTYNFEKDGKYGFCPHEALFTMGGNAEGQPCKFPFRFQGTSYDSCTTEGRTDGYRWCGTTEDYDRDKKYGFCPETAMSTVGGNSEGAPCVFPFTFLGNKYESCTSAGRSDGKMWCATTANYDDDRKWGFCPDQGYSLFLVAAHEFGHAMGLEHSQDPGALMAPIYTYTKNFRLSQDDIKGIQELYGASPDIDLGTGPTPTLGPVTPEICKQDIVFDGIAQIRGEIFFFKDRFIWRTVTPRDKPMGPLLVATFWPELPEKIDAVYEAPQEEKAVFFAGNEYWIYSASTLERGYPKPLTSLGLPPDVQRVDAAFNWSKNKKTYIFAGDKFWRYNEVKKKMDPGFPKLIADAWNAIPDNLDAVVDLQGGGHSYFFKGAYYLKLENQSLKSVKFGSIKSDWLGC
Sequence of Stromelysin-1 (P08254 whole entry): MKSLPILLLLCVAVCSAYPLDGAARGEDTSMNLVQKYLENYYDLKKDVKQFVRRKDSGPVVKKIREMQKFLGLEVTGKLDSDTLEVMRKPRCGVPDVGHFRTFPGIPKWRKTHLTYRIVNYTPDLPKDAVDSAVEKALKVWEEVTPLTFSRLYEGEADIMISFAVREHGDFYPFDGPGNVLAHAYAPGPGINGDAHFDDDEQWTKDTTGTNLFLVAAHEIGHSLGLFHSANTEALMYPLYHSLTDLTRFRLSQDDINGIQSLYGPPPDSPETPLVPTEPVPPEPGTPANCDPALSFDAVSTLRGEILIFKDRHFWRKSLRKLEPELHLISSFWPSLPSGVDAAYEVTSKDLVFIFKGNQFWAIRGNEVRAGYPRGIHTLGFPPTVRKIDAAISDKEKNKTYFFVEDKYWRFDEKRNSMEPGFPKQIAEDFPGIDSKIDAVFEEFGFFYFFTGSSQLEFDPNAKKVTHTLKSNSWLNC

SMILES: O=C(NO)C1(S(=O)(=O)c2ccc(Oc3ccc(C(F)(F)F)cc3)cc2)CCN(C2CC2)CC1
- pIC50 [1]: 10.00
- pIC50 [2]: 7.11
- pIC50 [3]: < 5.00
- pIC50 [4]: 8.89
- Cmax [5]: 8320 ng/mL
- Cp [6]: 631 ng/mL
- half-life [7]: 1.48 h
- bioavailability [8]: 36.3%

SMILES: O=C(NO)C1(S(=O)(=O)c2ccc(Oc3ccc(OC(F)(F)F)cc3)cc2)CCN(Cc2cccnc2)CC1
- pIC50 [9]: 5.34
- pIC50 [1]: > 10.00
- pIC50 [2]: 7.37
- pIC50 [3]: < 5.00
- pIC50 [4]: 8.82
- pIC50 [10]: 9.70
- Cmax [5]: 52600 ng/mL
- Cp [6]: 1900 ng/mL
- half-life [7]: 1.05 h
- bioavailability [8]: 49.8%
